Assay results taken from ChEMBL document CHEMBL3758082, “Design, synthesis, and biological evaluation of crenatoside analogues as novel influenza neuraminidase inhibitors” (Eur J Med Chem, 2016).

Key:
[1] = target: Neuraminidase (Influenza A virus) (UniProt B4URF0); test: Inhibition of Influenza A virus neuraminidase at 1000 ug/ml
Neuraminidase = Neuraminidase (Influenza A virus, UniProt B4URF0); test: Inhibition of Influenza A virus neuraminidase
Neuraminidase, sequence (B4URF0 whole entry): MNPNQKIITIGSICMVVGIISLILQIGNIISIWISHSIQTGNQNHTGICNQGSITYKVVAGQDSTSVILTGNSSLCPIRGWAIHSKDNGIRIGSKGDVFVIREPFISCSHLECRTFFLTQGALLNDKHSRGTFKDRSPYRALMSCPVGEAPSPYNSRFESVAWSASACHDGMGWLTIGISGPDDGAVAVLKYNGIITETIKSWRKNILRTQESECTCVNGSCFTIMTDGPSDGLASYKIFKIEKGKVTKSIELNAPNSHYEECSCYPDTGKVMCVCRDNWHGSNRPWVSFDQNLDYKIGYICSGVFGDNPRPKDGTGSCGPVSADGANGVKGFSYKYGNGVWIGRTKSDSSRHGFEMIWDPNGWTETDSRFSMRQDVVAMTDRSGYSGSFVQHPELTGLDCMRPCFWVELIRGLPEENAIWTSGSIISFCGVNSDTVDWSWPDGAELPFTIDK

Neuraminidase (Influenza A virus), sequence (B4URF0 as listed by the source): as the sequence (B4URF0 whole entry) above

**Q.** `O=C(/C=C/c1ccccc1)O[C@H]1[C@H](O)[C@@H](CO)O[C@H]2OC[C@H](c3ccccc3)O[C@@H]21` was tested. Which inhibition [1] did it give?
**A.** 17.6%

**Q.** `CC(C)[C@@H](N)C(=O)O[C@H]1[C@H](O)[C@@H](CO)O[C@H]2OC[C@H](c3ccccc3)O[C@@H]21` was tested. Which inhibition [1] did it give?
**A.** 16.6%

**Q.** What does the source list for `COc1cccc(/C=C/C(=O)O[C@H]2[C@H](O)[C@@H](CO)O[C@H]3OC[C@@H](c4ccccc4)O[C@@H]32)c1`?
**A.** inhibition [1]: 95.9%; IC50 (Neuraminidase): 67 µM

**Q.** How did the inhibition [1] turn out when `O=C(/C=C/c1ccc(O)c(O)c1)O[C@H]1[C@H](O)[C@@H](CO)O[C@H]2OC[C@H](c3ccccc3)O[C@@H]21` was run?
**A.** 94.1%

**Q.** What about the IC50 (Neuraminidase) of the same compound?
**A.** 67.3 µM

**Q.** For `O=C(/C=C/c1ccccc1)O[C@H]1[C@H](O)[C@@H](CO)O[C@H]2OC[C@@H](c3ccccc3)O[C@@H]21`, which inhibition [1] is on record?
**A.** 29.8%

**Q.** Which inhibition [1] does the source give for `O=C(/C=C/c1ccc(O)cc1)O[C@H]1[C@H](O)[C@@H](CO)O[C@H]2OC[C@H](c3ccccc3)O[C@@H]21` here?
**A.** 65%

**Q.** What about the IC50 (Neuraminidase) of the same compound?
**A.** 229 µM

**Q.** `C[C@@H]1O[C@@H](O[C@@H]2[C@H]3O[C@@H](c4ccc(O)c(O)c4)CO[C@@H]3O[C@H](CO)[C@H]2OC(=O)/C=C/c2ccc(O)c(O)c2)[C@H](O)[C@H](O)[C@H]1O` [CRENATOSIDE] was tested. Which inhibition [1] did it give?
**A.** 89.2%

**Q.** And the IC50 (Neuraminidase)?
**A.** 144 µM

**Q.** With `OC[C@H]1O[C@H]2OC[C@H](c3ccccc3)O[C@@H]2[C@@H](O)[C@@H]1O` as the compound, how does the inhibition [1] read?
**A.** 3.9%

**Q.** Which inhibition [1] does the source give for `CSCC[C@@H](N)C(=O)O[C@H]1[C@H](O)[C@@H](CO)O[C@H]2OC[C@H](c3ccccc3)O[C@@H]21` here?
**A.** 88.8%

**Q.** And the IC50 (Neuraminidase)?
**A.** 216 µM

**Q.** With `CC(C)[C@@H](N)C(=O)O[C@H]1[C@H](O)[C@@H](CO)O[C@H]2OC[C@@H](c3ccccc3)O[C@@H]21` as the compound, how does the inhibition [1] read?
**A.** 25.3%

**Q.** How did the inhibition [1] turn out when `O=C(/C=C/c1ccc(O)cc1)O[C@H]1[C@H](O)[C@@H](CO)O[C@H]2OC[C@@H](c3ccccc3)O[C@@H]21` was run?
**A.** 66.7%

**Q.** And the IC50 (Neuraminidase)?
**A.** 182 µM

**Q.** Which results are given for `C[C@@H]1O[C@@H](O[C@H]2[C@H](O)[C@@H](COC(=O)/C=C/c3ccc(O)c(O)c3)O[C@H]3OC[C@H](c4ccc(O)c(O)c4)O[C@@H]32)[C@H](O)[C@H](O)[C@H]1O` [ISOCRENATOSIDE]?
**A.** inhibition [1]: 86.3%; IC50 (Neuraminidase): 186 µM

**Q.** For `C[C@@H]1O[C@@H](O[C@H]2[C@H](O)[C@@H](CO)O[C@H]3OC[C@@H](c4ccccc4)O[C@@H]32)[C@H](O)[C@H](O)[C@H]1O`, which inhibition [1] is on record?
**A.** 11.7%

**Q.** What does the source list for `COc1cccc(/C=C/C(=O)O[C@H]2[C@H](O)[C@@H](CO)O[C@H]3OC[C@H](c4ccccc4)O[C@@H]32)c1`?
**A.** inhibition [1]: 91.2%; IC50 (Neuraminidase): 97 µM

**Q.** How did the inhibition [1] turn out when `O=C(/C=C/c1ccc(O)c(O)c1)O[C@H]1[C@H](O)[C@@H](CO)O[C@H]2OC[C@@H](c3ccccc3)O[C@@H]21` was run?
**A.** 97.4%

**Q.** And the IC50 (Neuraminidase)?
**A.** 62.5 µM

**Q.** For `C[C@@H]1O[C@@H](O[C@H]2[C@H](O)[C@@H](CO)O[C@H]3OC[C@H](c4ccccc4)O[C@@H]32)[C@H](O)[C@H](O)[C@H]1O`, which inhibition [1] is on record?
**A.** 8.28%

**Q.** Which inhibition [1] does the source give for `CSCC[C@@H](N)C(=O)O[C@H]1[C@H](O)[C@@H](CO)O[C@H]2OC[C@@H](c3ccccc3)O[C@@H]21` here?
**A.** 90.3%

**Q.** What about the IC50 (Neuraminidase) of the same compound?
**A.** 189 µM

**Q.** With `OC[C@H]1O[C@H]2OC[C@@H](c3ccccc3)O[C@@H]2[C@@H](O)[C@@H]1O` as the compound, how does the inhibition [1] read?
**A.** 16.8%
